According to article PMC11747885, “Potent inhibitors of the human RNA ligase Rlig1 highlights its role in RNA integrity maintenance under oxidative cellular stress” (Chemical Science, 2025):
Where “and” joins values, the source holds several entries; their conditions need not be identical. Equal entries are not always repeated. Where two headings read alike, the source gives them in different places.

What was measured:
[1] = system: other members of the PLK family; set-up: method as in MedChemExpress; conditions: ref MedChemExpress; cited from earlier work
FLT-3 = system: FLT-3; set-up: method as in MedChemExpress; conditions: ref MedChemExpress; cited from earlier work
Aurora A = system: Aurora A; set-up: method as in MedChemExpress; conditions: ref MedChemExpress; cited from earlier work
Aurora B = system: Aurora B; set-up: method as in MedChemExpress; conditions: ref MedChemExpress; cited from earlier work
KDR = system: KDR; set-up: method as in MedChemExpress; conditions: ref MedChemExpress; cited from earlier work
Rlig1-AMP = molecular target: T1, Rlig1-AMP (Homo sapiens, UniProt Q8N999); assay: FRET-based high-throughput screening of inhibitors for Rlig1-AMP; assay type: biochemical; conditions: HTS hits; for Raw data [w Enyzm]: with enzyme; for Raw data [w/o Enzym]: without enzyme
T1 construct: made in house; host or cells: E. coli BL21 (DE3), pET15b-Rlig1

ETA receptors = molecular target: ETA receptors; set-up: method as in MedChemExpress; conditions: binding to ETA receptors in SK-N-MC cells; ref MedChemExpress; cited from earlier work
ETB receptor = molecular target: ETB receptor; set-up: method as in MedChemExpress; conditions: inhibition of ET-1 binding to human Girardi heart cells (ETB); ref MedChemExpress; cited from earlier work
rat brain PKC = system: rat brain PKC; set-up: method as in MedChemExpress; conditions: ref MedChemExpress; cited from earlier work
PKC-α = system: PKC-α; set-up: method as in MedChemExpress; conditions: ref MedChemExpress; cited from earlier work
PKC-βI = system: PKC-βI; set-up: method as in MedChemExpress; conditions: ref MedChemExpress; cited from earlier work
PKC-ε = system: PKC-ε; set-up: method as in MedChemExpress; conditions: ref MedChemExpress; cited from earlier work
PKC-βII = system: PKC-βII; set-up: method as in MedChemExpress; conditions: ref MedChemExpress; cited from earlier work
PKC-γ = system: PKC-γ; set-up: method as in MedChemExpress; conditions: ref MedChemExpress; cited from earlier work
Pim-2 = system: Pim-2; set-up: method as in MedChemExpress; conditions: ref MedChemExpress; cited from earlier work
Pim-3 = system: Pim-3; set-up: method as in MedChemExpress; conditions: ref MedChemExpress; cited from earlier work
Pim-1 = system: Pim-1; set-up: method as in MedChemExpress; conditions: ref MedChemExpress; cited from earlier work
[2] = molecular target: human DNA topoisomerase I; set-up: method as in MedChemExpress; conditions: ref MedChemExpress; cited from earlier work
NLRP3 inflammasome = system: NLRP3 inflammasome; set-up: method as in MedChemExpress; conditions: ref MedChemExpress; cited from earlier work
wild-type h5-HT1D = molecular target: wild-type h5-HT1D; set-up: method as in MedChemExpress; conditions: ref MedChemExpress; cited from earlier work
wild-type h5-HT1B = molecular target: wild-type h5-HT1B; set-up: method as in MedChemExpress; conditions: ref MedChemExpress; cited from earlier work
[3] = DMSO; ref MedChemExpress; cited from earlier work
JNK1 = system: JNK1; set-up: method as in MedChemExpress; conditions: ref MedChemExpress; cited from earlier work
JNK2 = system: JNK2; set-up: method as in MedChemExpress; conditions: ref MedChemExpress; cited from earlier work
JNK3 = system: JNK3; set-up: method as in MedChemExpress; conditions: ref MedChemExpress; cited from earlier work
[4] = DMSO; ref MedChemExpress; cited from earlier work; remark: listed apart in the source
CXXC5-DVL = system: CXXC5-DVL; set-up: method as in MedChemExpress; conditions: ref MedChemExpress; cited from earlier work
GSK3β = system: GSK3β; set-up: method as in MedChemExpress; conditions: ref MedChemExpress; cited from earlier work
MAGL = system: MAGL; set-up: method as in MedChemExpress; conditions: ref MedChemExpress; cited from earlier work
[5] = system: human p53 and CREB binding protein association; set-up: method as in MedChemExpress; conditions: at 50 μM; ref MedChemExpress; cited from earlier work
CDK7 = molecular target: CDK7; set-up: method as in MedChemExpress; conditions: ref MedChemExpress; cited from earlier work
RNA synthesis = system: RNA synthesis; set-up: method as in MedChemExpress; conditions: ref MedChemExpress; cited from earlier work
DNA synthesis = system: DNA synthesis; set-up: method as in MedChemExpress; conditions: ref MedChemExpress; cited from earlier work
PI3Kα = system: PI3Kα; set-up: method as in MedChemExpress; conditions: ref MedChemExpress; cited from earlier work
Syk = system: Syk; set-up: method as in MedChemExpress; conditions: ref MedChemExpress; cited from earlier work
HIV-1IIIB = system: HIV-1IIIB; set-up: method as in MedChemExpress; conditions: ref MedChemExpress; cited from earlier work
HIV-1(74V) = system: HIV-1(74V); set-up: method as in MedChemExpress; conditions: ref MedChemExpress; cited from earlier work
HIV-1KM018 = system: HIV-1KM018; set-up: method as in MedChemExpress; conditions: ref MedChemExpress; cited from earlier work
TMEM16A chloride channel = system: TMEM16A chloride channel; set-up: method as in MedChemExpress; conditions: ref MedChemExpress; cited from earlier work
SirT5 = system: SirT5; set-up: method as in MedChemExpress; conditions: ref MedChemExpress; cited from earlier work
SirT2 = system: SirT2; set-up: method as in MedChemExpress; conditions: ref MedChemExpress; cited from earlier work
DNA topoisomerase II = molecular target: DNA topoisomerase II; set-up: method as in MedChemExpress; conditions: ref MedChemExpress; cited from earlier work
hERG channel = system: hERG channel; set-up: method as in MedChemExpress; conditions: ref MedChemExpress; cited from earlier work
[6] = difference of raw data without and with enzyme
[7] = difference of raw data w/o and w enzyme

T1 sequence (Q8N999 whole entry): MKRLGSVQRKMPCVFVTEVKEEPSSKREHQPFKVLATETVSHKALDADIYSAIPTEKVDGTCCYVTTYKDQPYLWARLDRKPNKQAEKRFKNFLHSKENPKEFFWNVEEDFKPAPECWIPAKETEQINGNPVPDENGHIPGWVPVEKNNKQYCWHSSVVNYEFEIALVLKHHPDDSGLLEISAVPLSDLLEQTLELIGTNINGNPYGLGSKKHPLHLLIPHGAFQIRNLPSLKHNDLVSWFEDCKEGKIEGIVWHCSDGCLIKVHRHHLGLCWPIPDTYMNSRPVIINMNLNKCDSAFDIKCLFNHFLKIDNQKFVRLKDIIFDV

Compound | 1-D Distance.npi (Rlig1-AMP; MedChemExpress library) | 1-D Distance (Rlig1-AMP; [6]) | Raw data [w Enyzm] (Rlig1-AMP) | Raw data [w/o Enzym] (Rlig1-AMP) | further results
COc1ccc2[nH]c(O)c(C=c3ccc4c(c3)N=NC=4/C=C/c3ccc(N4CCN(C)CC4)nc3)c2c1.Cl.Cl [(1E)-CFI-400437 (dihydrochloride)] | 102.026 | 187 | 4069 | 3882 | IC50 [1]: > 10000 nM; IC50 (FLT-3): 180 nM; IC50 (Aurora A): 370 nM; IC50 (Aurora B): 210 nM; IC50 (KDR): 480 nM
CCCC[C@@H](NC(=O)[C@@H](Cc1cn(C(=O)OC)c2ccccc12)NC(=O)[C@H](CC(C)(C)C)NC(=O)N1[C@H](C)CCC[C@@H]1C)C(=O)[O-].[Na+] [BQ-788] | 75.2571 | 1704 | 8619 | 10323 | IC50 (ETA receptors): 1300 nM; IC50 (ETB receptor): 1.2 nM
CC(=O)O.Cn1cc(C2=C(c3cn(CCCN)c4ccccc34)C(=O)NC2=O)c2ccccc21 [Bisindolylmaleimide VIII (acetate)] | 70.0569 | 1909 | 2831 | 4740 | IC50 (rat brain PKC): 158 nM; IC50 (PKC-α): 53 nM; IC50 (PKC-βI): 195 nM; IC50 (PKC-ε): 175 nM; IC50 (PKC-βII): 163 nM; IC50 (PKC-γ): 213 nM
CN1CCCN(C(=O)c2cccc(-c3ccc(/C=C4/C(=O)Nc5ccc(Cl)cc54)o3)c2)CC1.Cl [CX-6258 (hydrochloride)] | 75.5915 | 1601 | […] | 6590 | IC50 (Pim-2): 25 nM; IC50 (Pim-3): 16 nM; IC50 (Pim-1): […]
COc1cccc2c1C(=O)c1c(O)c3c(c(O)c1C2=O)C[C@@](O)(C(=O)CO)C[C@@H]3O[C@H]1C[C@H](N)[C@H](O)[C@H](C)O1.Cl [Doxorubicin (hydrochloride)] | 103.376 | 134 | 1247 | – | IC50 [2]: 800 nM
CC(C)n1ccc(S(=O)(=O)NC(=O)Nc2c3c(cc4c2CCC4)CCC3)n1 [Emlenoflast (sodium)] | 80.6711 | 1207 | 9218 | 10425 | IC50 (NLRP3 inflammasome): < 100 nM
COc1ccc(NC(=O)c2ccc(-c3ccncc3)c(C)c2)cc1N1CCN(C)CC1 [GR 125743] | – | – | 8833 | 10262 | pKi (wild-type h5-HT1D): 8.31; pKi (wild-type h5-HT1B): 8.85; 1-D Distance (Rlig1-AMP; [7]): 1429; solubility [3]: 100 mg/mL and 240.08 mM
O=C1Nc2ccccc2/C1=C1/Nc2ccccc2/C1=N\O [Indirubin-3′-oxime] | 72.577 | 1766 | 1847 | 3613 | IC50 (JNK1): 800 nM; IC50 (JNK2): 1400 nM; IC50 (JNK3): 1000 nM
CON=C1C(=C2C(=O)Nc3cc(Cl)c(Cl)cc32)Nc2ccccc21 [KY19382] | 101.229 | 138 | 6054 | 6192 | solubility [4]: 5 mg/mL and 13.88 mM; IC50 (CXXC5-DVL): 19 nM; IC50 (GSK3β): 10 nM
CC(C)c1ccc(C(=O)C2CCN(C(=O)c3cc(O)ccc3F)CC2)cc1 [MAGL-IN-1] | 70.8371 | 1819 | 9200 | 11019 | IC50 (MAGL): 80 nM
CC(=O)n1c2c(c3ccccc31)CCCC2=O [MS7972] | – | – | 8943 | 10149 | block of BRD interaction [5]: MS7972 is a small molecule that blocks human p53 and CREB binding protein association. MS7972 can almost completely block this BRD interaction at 50 μM[1].; 1-D Distance (Rlig1-AMP; [7]): 1206; 1-D Distance.npi (Rlig1-AMP; normalized value (npi)): 81.4632
CN(C)C/C=C/C(=O)Nc1ccc(C(=O)N[C@@]2(C)CCC[C@@H](Nc3ncc(Cl)c(-c4c[nH]c5ccccc45)n3)C2)nc1 [Mevociclib] | 95.3899 | 561 | 5749 | 5188 | Ki (CDK7): 17.4 nM
CCc1c2c(nc3ccc(O)cc13)-c1cc3c(c(=O)n1C2)COC(=O)[C@]3(O)CC [SN-38] | 72.669 | 1812 | 9411 | 11223 | IC50 (RNA synthesis): 1300 nM; IC50 (DNA synthesis): 77 nM; solubility [4]: 50 mg/mL and 127.42 mM
Cc1nn(-c2ccnc(Nc3ccc(-c4csc5c(=O)cc(N6CCOCC6)oc45)cc3)n2)cc1CN1CCC1 [SRX3207] | 89.3143 | 966 | 7329 | 6363 | solubility [4]: 5 mg/mL and 9.00 mM; IC50 (PI3Kα): 861 nM; IC50 (Syk): 10.7 nM
O=C(O)[C@H]1O[C@@H](Oc2cc3oc(-c4ccc(O)cc4)cc(=O)c3c(O)c2O)[C@H](O)[C@@H](O)[C@@H]1O [Scutellarin] | – | 1804 | 9318 | 11122 | EC50 (HIV-1IIIB): 26000 nM; EC50 (HIV-1(74V)): 253000 nM; EC50 (HIV-1KM018): 136000 nM; solubility [4]: 100 mg/mL and 216.28 mM
CC(C)=CC[C@@H](O)C1=CC(=O)c2c(O)ccc(O)c2C1=O [Shikonin] | – | 1574 | 3611 | – | IC50 (TMEM16A chloride channel): 6500 nM
Cc1ccc(C(=O)Nc2ccc(S(=O)(=O)[O-])c3cc(S(=O)(=O)[O-])cc(S(=O)(=O)[O-])c23)cc1NC(=O)c1cccc(NC(=O)Nc2cccc(C(=O)Nc3cc(C(=O)Nc4ccc(S(=O)(=O)[O-])c5cc(S(=O)(=O)[O-])cc(S(=O)(=O)[O-])c45)ccc3C)c2)c1.[Na+].[Na+].[Na+].[Na+].[Na+].[Na+] [Suramin (sodium salt)] | 85.8095 | 1150 | 13348 | 14498 | IC50 (SirT5): 22000 nM; IC50 (SirT2): 1150 nM; IC50 (DNA topoisomerase II): 5000 nM
Tannic acid | 92.4189 | 691 | 13343 | 14034 | IC50 (hERG channel): 3400 nM
